The test system of the assay is differentiated 1464R cell line (no forced TDP-43 expression). The experiment in a line: RNA-seq gene expression analysis in differentiated cell line without TDP-43. Type of assay: cell-based, rat. The following applies: Group 2 (Eda 50 μmol/L 48 h) vs Group 1 (control). The procedure: Next, using a differentiation medium shown below, the 1464R cell line was cultured in an adherent state on a poly-L-lysine treated dish. Culture conditions for cell differentiation were 37° C., 5% CO2, and 4 days. Through this process, the 1464R cell line was differentiated into neuronal cells (neurons). Further, the 1464R cell line partly differentiated into glial cells. In the following description, the differentiated 1464R cell line is also collectively referred to as the “differentiated cell line.” […]
Next, using the NovaSeq6000 system (NovaSeq6000 S4 reagent kit, NovaSeq Xp4 lane kit, and NovaSeq control software (version 1.6.0); all manufactured by Illumina), sequences of the cDNA library were determined according to a product protocol. […]
An RNA expression level (TPM) of a transcription product i measured from the cDNA library of the experimental groups was calculated based on alignment to the rat genome and transcription product annotation from the Ensembl database, according to the following equation (A).
Differential expression analysis was performed using DESeq2 (a package for two-group comparison) in the statistical analysis software R (version 3.6.0) to calculate a log 2 ratio of RNA expression levels and a significance test. The log 2 ratio is a value expressed as “log 2 ([expression level of a first measurement target]/[expression level of a second measurement target]).” […]

With `CC1=NN(c2ccccc2)C(=O)C1` [edaravone, 5-methyl-2-phenyl-2,4-dihydro-3H-pyrazol-3-one], the “number of downregulated genes (DEGs)” value is 0/0 and the “number of upregulated genes (DEGs)” value is recorded as 0/0.
